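Where inhibition never reached the appropriate level, the endpoint shown equals the highest concentration tested. Otherwise, values were interpolated linearly from a five-concentration, 48-hour dose response in 96-well plates. TGI marks complete inhibition of growth.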
Tests used:
Test in all cases: DTP human tumour cell line panel, 48 h
COLO 205 colon = test system: COLO 205 colon
OVCAR-3 ovarian = test system: OVCAR-3 ovarian
HOP-92 NSCLC = test system: HOP-92 NSCLC
HCT-15 colon = test system: HCT-15 colon
EKVX NSCLC = test system: EKVX NSCLC
HOP-18 NSCLC = test system: HOP-18 NSCLC
CCRF-CEM leukemia = test system: CCRF-CEM leukemia
UO-31 renal = test system: UO-31 renal
DLD-1 colon = test system: DLD-1 colon
SN12C renal = test system: SN12C renal
SF-539 CNS = test system: SF-539 CNS
RXF-631 renal = test system: RXF-631 renal
DMS 273 small cell lung = test system: DMS 273 small cell lung
ACHN renal = test system: ACHN renal
HL-60(TB) leukemia = test system: HL-60(TB) leukemia
SNB-19 CNS = test system: SNB-19 CNS
CAKI-1 renal = test system: CAKI-1 renal
SK-MEL-2 melanoma = test system: SK-MEL-2 melanoma
SF-295 CNS = test system: SF-295 CNS
KM20L2 colon = test system: KM20L2 colon
NCI-H460 lung = test system: NCI-H460 lung
NCI-H23 lung = test system: NCI-H23 lung
KM12 colon = test system: KM12 colon
LXFL 529 NSCLC = test system: LXFL 529 NSCLC
OVCAR-4 ovarian = test system: OVCAR-4 ovarian
RPMI-8226 leukemia = test system: RPMI-8226 leukemia
M19-MEL melanoma = test system: M19-MEL melanoma
OVCAR-5 ovarian = test system: OVCAR-5 ovarian
SK-MEL-28 melanoma = test system: SK-MEL-28 melanoma
SK-MEL-5 melanoma = test system: SK-MEL-5 melanoma
SK-OV-3 ovarian = test system: SK-OV-3 ovarian
MALME-3M melanoma = test system: MALME-3M melanoma
NCI-H522 lung = test system: NCI-H522 lung
A549 NSCLC = test system: A549 NSCLC
HT29 colon = test system: HT29 colon
MOLT-4 leukemia = test system: MOLT-4 leukemia
UACC-62 melanoma = test system: UACC-62 melanoma
XF 498 CNS = test system: XF 498 CNS
IGROV1 ovarian = test system: IGROV1 ovarian
A498 renal = test system: A498 renal
TK-10 renal = test system: TK-10 renal
LOX IMVI melanoma = test system: LOX IMVI melanoma
OVCAR-8 ovarian = test system: OVCAR-8 ovarian
K-562 leukemia = test system: K-562 leukemia
U251 CNS = test system: U251 CNS
SF-268 CNS = test system: SF-268 CNS
RXF 393 renal = test system: RXF 393 renal
SW-620 colon = test system: SW-620 colon
SNB-75 CNS = test system: SNB-75 CNS
786-0 renal = test system: 786-0 renal
M14 melanoma = test system: M14 melanoma
HOP-62 NSCLC = test system: HOP-62 NSCLC
SNB-78 CNS = test system: SNB-78 CNS
UACC-257 melanoma = test system: UACC-257 melanoma
HCC-2998 colon = test system: HCC-2998 colon
SR leukemia = test system: SR leukemia
NCI-H226 lung = test system: NCI-H226 lung
HCT-116 colon = test system: HCT-116 colon
DMS 114 small cell lung = test system: DMS 114 small cell lung

Work on CCCCCCCCNC(=O)SCCCC yielded a TGI (COLO 205 colon) of over 100 µM, a TGI (OVCAR-3 ovarian) of over 100 µM and a TGI (HOP-92 NSCLC) of 49 µM. For the same compound, the TGI (HCT-15 colon) was over 100 µM, the TGI (EKVX NSCLC) was 80.1 µM and the TGI (HOP-18 NSCLC) was over 100 µM. It also gave a TGI (CCRF-CEM leukemia) of 69 µM, a TGI (UO-31 renal) of 65.1 µM and a TGI (DLD-1 colon) of over 100 µM. It also gave a TGI (SN12C renal) of over 100 µM, a TGI (SF-539 CNS) of over 100 µM and a TGI (RXF-631 renal) of over 100 µM. It also gave a TGI (DMS 273 small cell lung) of over 100 µM, a TGI (ACHN renal) of over 100 µM and a TGI (HL-60(TB) leukemia) of 43.7 µM. It also gave a TGI (SNB-19 CNS) of 87.9 µM, a TGI (CAKI-1 renal) of 61.9 µM and a TGI (SK-MEL-2 melanoma) of 56.2 µM. The TGI (SF-295 CNS) was over 100 µM, the TGI (KM20L2 colon) was over 100 µM and the TGI (NCI-H460 lung) was 82.2 µM. It also gave a TGI (NCI-H23 lung) of over 100 µM, a TGI (KM12 colon) of over 100 µM and a TGI (LXFL 529 NSCLC) of over 100 µM. For the same compound, the TGI (OVCAR-4 ovarian) was over 100 µM, the TGI (RPMI-8226 leukemia) was 58.7 µM and the TGI (M19-MEL melanoma) was over 100 µM. It also gave a TGI (OVCAR-5 ovarian) of over 100 µM, a TGI (SK-MEL-28 melanoma) of over 100 µM and a TGI (SK-MEL-5 melanoma) of 44.4 µM. It also gave a TGI (SK-OV-3 ovarian) of over 100 µM, a TGI (MALME-3M melanoma) of 63.1 µM and a TGI (NCI-H522 lung) of 76.7 µM. It also gave a TGI (A549 NSCLC) of over 100 µM, a TGI (HT29 colon) of 59.4 µM and a TGI (MOLT-4 leukemia) of 84.9 µM. For the same compound, the TGI (UACC-62 melanoma) was over 100 µM, the TGI (XF 498 CNS) was 37.5 µM and the TGI (IGROV1 ovarian) was over 100 µM. It also gave a TGI (A498 renal) of over 100 µM, a TGI (TK-10 renal) of over 100 µM and a TGI (LOX IMVI melanoma) of 39.2 µM. The TGI (OVCAR-8 ovarian) was over 100 µM, the TGI (K-562 leukemia) was over 100 µM and the TGI (U251 CNS) was over 100 µM. For the same compound, the TGI (SF-268 CNS) was over 100 µM, the TGI (RXF 393 renal) was 68 µM and the TGI (SW-620 colon) was over 100 µM. For the same compound, the TGI (SNB-75 CNS) was 68.8 µM, the TGI (786-0 renal) was over 100 µM and the TGI (M14 melanoma) was over 100 µM.
With Cc1ccccc1NC(=O)C(=O)C1CN(c2ccccc2)N=C1N (stereo not given) the TGI (OVCAR-3 ovarian) was over 100 µM, the TGI (HOP-92 NSCLC) was over 100 µM and the TGI (EKVX NSCLC) was over 100 µM. The TGI (CCRF-CEM leukemia) was over 100 µM, the TGI (UO-31 renal) was over 100 µM and the TGI (DLD-1 colon) was over 100 µM. The TGI (SN12C renal) was over 100 µM, the TGI (HOP-62 NSCLC) was over 100 µM and the TGI (SF-539 CNS) was over 100 µM. For the same compound, the TGI (RXF-631 renal) was over 100 µM, the TGI (HL-60(TB) leukemia) was over 100 µM and the TGI (SNB-19 CNS) was over 100 µM. For the same compound, the TGI (SNB-78 CNS) was over 100 µM, the TGI (CAKI-1 renal) was over 100 µM and the TGI (KM20L2 colon) was over 100 µM. The TGI (NCI-H460 lung) was over 100 µM, the TGI (NCI-H23 lung) was over 100 µM and the TGI (LXFL 529 NSCLC) was over 100 µM. For the same compound, the TGI (OVCAR-4 ovarian) was over 100 µM, the TGI (M19-MEL melanoma) was over 100 µM and the TGI (SK-MEL-28 melanoma) was over 100 µM. It also gave a TGI (SK-OV-3 ovarian) of over 100 µM, a TGI (MALME-3M melanoma) of over 100 µM and a TGI (UACC-257 melanoma) of over 100 µM. It also gave a TGI (NCI-H522 lung) of over 100 µM, a TGI (A549 NSCLC) of over 100 µM and a TGI (HT29 colon) of over 100 µM. For the same compound, the TGI (MOLT-4 leukemia) was over 100 µM, the TGI (XF 498 CNS) was over 100 µM and the TGI (IGROV1 ovarian) was over 100 µM. It also gave a TGI (HCC-2998 colon) of over 100 µM, a TGI (A498 renal) of over 100 µM and a TGI (SR leukemia) of over 100 µM. The TGI (OVCAR-8 ovarian) was over 100 µM, the TGI (K-562 leukemia) was over 100 µM and the TGI (U251 CNS) was over 100 µM. It also gave a TGI (SF-268 CNS) of over 100 µM, a TGI (RXF 393 renal) of over 100 µM and a TGI (SNB-75 CNS) of over 100 µM. The TGI (NCI-H226 lung) was over 100 µM, the TGI (786-0 renal) was over 100 µM and the TGI (M14 melanoma) was over 100 µM. It also gave a TGI (HCT-116 colon) of over 100 µM.
For CC(=O)Nc1cccc2[nH]c3ccccc3c(=O)c12, the TGI (COLO 205 colon) was 34 µM, the TGI (OVCAR-3 ovarian) was 39.5 µM and the TGI (HCT-15 colon) was 42.7 µM. For the same compound, the TGI (EKVX NSCLC) was 78.6 µM, the TGI (HOP-18 NSCLC) was 38.6 µM and the TGI (CCRF-CEM leukemia) was over 100 µM. For the same compound, the TGI (UO-31 renal) was 32.7 µM, the TGI (DLD-1 colon) was 53.6 µM and the TGI (SN12C renal) was over 100 µM. It also gave a TGI (SF-539 CNS) of 63.7 µM, a TGI (RXF-631 renal) of 94.8 µM and a TGI (DMS 273 small cell lung) of over 100 µM. For the same compound, the TGI (ACHN renal) was 52.3 µM, the TGI (HL-60(TB) leukemia) was 39.8 µM and the TGI (SNB-19 CNS) was 64.1 µM. For the same compound, the TGI (CAKI-1 renal) was 45.3 µM, the TGI (SK-MEL-2 melanoma) was 38.7 µM and the TGI (DMS 114 small cell lung) was 79.6 µM. For the same compound, the TGI (SF-295 CNS) was 51.1 µM, the TGI (KM20L2 colon) was 83.3 µM and the TGI (NCI-H460 lung) was 43.2 µM. For the same compound, the TGI (NCI-H23 lung) was 29.5 µM, the TGI (KM12 colon) was 41.2 µM and the TGI (OVCAR-4 ovarian) was 65.1 µM. It also gave a TGI (RPMI-8226 leukemia) of 43.8 µM, a TGI (M19-MEL melanoma) of 51.1 µM and a TGI (OVCAR-5 ovarian) of 54.2 µM. It also gave a TGI (SK-MEL-28 melanoma) of 92.3 µM, a TGI (SK-MEL-5 melanoma) of 30.4 µM and a TGI (SK-OV-3 ovarian) of 67.4 µM. For the same compound, the TGI (MALME-3M melanoma) was 50.1 µM, the TGI (UACC-257 melanoma) was 58.3 µM and the TGI (NCI-H522 lung) was 26.2 µM. It also gave a TGI (A549 NSCLC) of 55.6 µM, a TGI (HT29 colon) of 40.9 µM and a TGI (MOLT-4 leukemia) of over 100 µM. It also gave a TGI (UACC-62 melanoma) of 31.1 µM, a TGI (XF 498 CNS) of 50.2 µM and a TGI (IGROV1 ovarian) of 70.3 µM. The TGI (A498 renal) was 29.6 µM, the TGI (TK-10 renal) was 50.1 µM and the TGI (OVCAR-8 ovarian) was 45.1 µM. It also gave a TGI (K-562 leukemia) of over 100 µM, a TGI (U251 CNS) of 75.5 µM and a TGI (SF-268 CNS) of 95.4 µM. The TGI (SW-620 colon) was 58.3 µM, the TGI (SNB-75 CNS) was 65.9 µM and the TGI (NCI-H226 lung) was 40.5 µM. It also gave a TGI (786-0 renal) of 51.1 µM, a TGI (M14 melanoma) of over 100 µM and a TGI (HCT-116 colon) of 28.6 µM.

— PubChem BioAssay (NCI)
